Consider 42 molecules from BindingDB's records for doi:10.7270/Q2Q52N1X (Vanderbilt Screening Center for GPCRs, Ion Channels and …, 2009).

One test deals with T1, Solute carrier family 12 member 5 (Homo sapiens, UniProt Q9H2X9).
T1 sequence (Q9H2X9 whole entry): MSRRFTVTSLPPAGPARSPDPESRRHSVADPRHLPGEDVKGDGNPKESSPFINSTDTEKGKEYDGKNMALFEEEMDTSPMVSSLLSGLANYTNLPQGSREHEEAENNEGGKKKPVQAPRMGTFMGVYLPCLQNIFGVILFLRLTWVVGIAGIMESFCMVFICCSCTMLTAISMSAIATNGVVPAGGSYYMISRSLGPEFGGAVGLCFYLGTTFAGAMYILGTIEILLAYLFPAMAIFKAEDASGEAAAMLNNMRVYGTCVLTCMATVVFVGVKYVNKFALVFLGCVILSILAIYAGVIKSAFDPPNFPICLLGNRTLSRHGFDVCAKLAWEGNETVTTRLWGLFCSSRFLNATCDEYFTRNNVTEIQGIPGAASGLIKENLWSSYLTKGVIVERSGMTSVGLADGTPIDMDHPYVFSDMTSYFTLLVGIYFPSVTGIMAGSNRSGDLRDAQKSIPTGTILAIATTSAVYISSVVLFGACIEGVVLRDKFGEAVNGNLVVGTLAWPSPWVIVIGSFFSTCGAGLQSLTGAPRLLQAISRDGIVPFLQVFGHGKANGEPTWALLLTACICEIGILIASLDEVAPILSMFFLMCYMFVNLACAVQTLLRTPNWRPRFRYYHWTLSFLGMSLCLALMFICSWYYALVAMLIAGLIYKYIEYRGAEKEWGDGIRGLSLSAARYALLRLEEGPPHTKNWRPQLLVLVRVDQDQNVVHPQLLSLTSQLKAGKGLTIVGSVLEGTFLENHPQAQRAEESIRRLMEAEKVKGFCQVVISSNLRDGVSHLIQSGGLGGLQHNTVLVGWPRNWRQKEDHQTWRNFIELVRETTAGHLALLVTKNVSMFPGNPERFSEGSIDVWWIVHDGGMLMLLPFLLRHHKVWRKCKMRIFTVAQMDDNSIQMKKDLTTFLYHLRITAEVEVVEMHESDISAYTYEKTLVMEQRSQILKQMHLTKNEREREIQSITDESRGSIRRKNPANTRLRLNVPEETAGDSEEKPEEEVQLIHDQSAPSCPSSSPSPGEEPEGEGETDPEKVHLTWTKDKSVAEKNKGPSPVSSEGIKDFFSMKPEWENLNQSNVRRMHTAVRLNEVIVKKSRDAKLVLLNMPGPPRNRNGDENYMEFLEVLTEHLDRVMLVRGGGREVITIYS
Kind of test: concentration-response of KCC2 transport modulators – cell-based, HEK293 KCC2, FluoZin-2 fluorescence, dose response (AID 1736).
Settings: not given
On to `S=C(NN=Cc1cccc2ccccc12)Nc1cccc(Cl)c1` [1-(3-chlorophenyl)-3-(1-naphthalenylmethylideneamino)thiourea], for which a half-maximal effect (EC50) was put at 12.7 µM. This counts as double-digit micromolar.
The same measure, in the same setting: as for `Cn1c(SCc2ccccc2Cl)nc2ccccc21` [2-[(2-chlorobenzyl)thio]-1-methyl-1H-benzimidazole], the figure is 3.96 µM; as for `O=C(c1cc(COc2c(F)cccc2F)on1)N1CCC(c2ccncc2)CC1` [4-[1-({5-[(2,6-difluorophenoxy)methyl]isoxazol-3-yl}carbonyl)piperidin-4-yl]pyridine], 12.2 µM; as for `CC1Cc2ccccc2N1C(=O)c1ccc(N2CCCC2)c([N+](=O)[O-])c1` (configuration not stated) [(2-methyl-2,3-dihydroindol-1-yl)-(3-nitro-4-pyrrolidin-1-yl-phenyl)methanone], 0.361 µM.
The same measure, in the same setting: with `Sc1nnc(Cc2c[nH]c3ccccc23)o1` [5-(1H-indol-3-ylmethyl)-1,3,4-oxadiazole-2(3H)-thione] the figure was 3.76 µM.
Molecule `c1ccc(-c2nnc(Sc3ncnc4c3cnn4-c3ccccc3)[nH]2)cc1` [SMR000019566] came in with an EC50 of 12.3 µM.
On the same count and under the same terms, with `Cc1ccc(-c2n[nH]c(=S)n2NC=CCc2ccccc2[N+](=O)[O-])cc1` the figure was 1.8 µM; with `Cn1cc(C(=O)C(=O)N2CCCc3ccccc32)c2ccccc21` [1-(3,4-dihydro-2H-quinolin-1-yl)-2-(1-methyl-3-indolyl)ethane-1,2-dione], 3.72 µM.
In turn, `CCc1cc(C(=O)N2CCCC(CNC(=O)c3ccc(-c4ccccc4)cc3)C2)no1` (configuration not stated) [MLS000731765] came in with an EC50 of 4.25 µM.
`CCC(Cc1ccccc1)NC(=O)CN(C)S(=O)(=O)c1ccc2c(c1)c(=O)n(C)c(=O)n2C` (configuration not stated) [2-[(1,3-dimethyl-2,4-dioxo-6-quinazolinyl)sulfonyl-methylamino]-N-(1-phenylbutan-2-yl)acetamide] came in with an EC50 of 2410 µM.
On the same count and under the same terms, as for `CCc1ccc(C(=O)COC(=O)c2cc([N+](=O)[O-])ccc2NCCO)cc1` [2-(2-hydroxyethylamino)-5-nitro-benzoic acid [2-(4-ethylphenyl)-2-keto-ethyl] ester], the figure is 5.45 µM; as for `O=C(CN1C(=O)NC2(CCCC2)C1=O)Nc1nc(-c2ccc(F)cc2)cs1` [2-(2,4-diketo-1,3-diazaspiro[4.4]nonan-3-yl)-N-[4-(4-fluorophenyl)thiazol-2-yl]acetamide], 0.231 µM.
Consider `COc1ccc(NC(=S)NC(N)=Nc2nc(C)c3ccccc3n2)cc1` [(1E)-1-[amino-[(4-methyl-2-quinazolinyl)amino]methylidene]-3-(4-methoxyphenyl)thiourea], for which the midpoint of the response, the EC50, lay at 70.5 µM.
On to `CCc1ccc(Nc2nnc(SCc3cc(=O)n4ccsc4n3)s2)cc1` [7-[[5-(4-ethylanilino)-1,3,4-thiadiazol-2-yl]sulfanylmethyl]-[1,3]thiazolo[3,2-a]pyrimidin-5-one], for which the response was half-maximal at 0.281 µM (EC50).
In turn, `Sc1nnc(Nc2ccccc2)s1` [5-anilino-3H-1,3,4-thiadiazole-2-thione] registered an EC50 of 2.5 µM. This EC50 is about 8.9-fold higher than that of the molecule before.
Take `O=C(O)c1cc(-c2ccc(F)cc2F)ccc1O`: the EC50 turned out to be 10.6 µM.
The same measure, in the same setting: with `N#Cc1nc(Cc2cccc3ccccc23)oc1NCCN1CCOCC1` [5-(2-Morpholin-4-yl-ethylamino)-2-naphthalen-1-ylmethyl-oxazole-4-carbonitrile] the figure was 10.3 µM; with `O=C(COC(=O)c1cc([N+](=O)[O-])ccc1NCc1ccccc1)NC1CCCCC1` [2-(benzylamino)-5-nitro-benzoic acid [2-(cyclohexylamino)-2-keto-ethyl] ester], 4.56 µM.
The same measure, in the same setting: with `O=C(COC(=O)c1cc([N+](=O)[O-])ccc1NCCO)c1ccccc1` [2-(2-hydroxyethylamino)-5-nitro-benzoic acid phenacyl ester] the figure was 41.9 µM.
`Oc1ccccc1CN=Nc1nc2ccccc2o1` [(6E)-6-[(1,3-benzoxazol-2-ylhydrazo)methylidene]-1-cyclohexa-2,4-dienone] came in with an EC50 of 3040 µM.
The same measure, in the same setting: as for `O=C(CSc1ccc(-c2cccs2)nn1)Nc1ccccc1F` [MLS000621184], the figure is 2.19 µM; as for `N#Cc1c(NC(=O)CSc2nc(N)cc(=O)[nH]2)sc2c1CCCCCC2` [2-[(6-amino-4-oxo-1H-pyrimidin-2-yl)sulfanyl]-N-(3-cyano-4,5,6,7,8,9-hexahydrocycloocta[b]thiophen-2-yl)acetamide], 0.461 µM.
The same measure, in the same setting: with `CCOC(=O)c1c(C)[nH]c(N=Nc2ccccc2)c1C` [(5Z)-2,4-dimethyl-5-(phenylhydrazinylidene)-3-pyrrolecarboxylic acid ethyl ester] the figure was 6.54 µM.
In turn, `O=C(c1ccc(-c2ccccc2)cc1)C1CCCN(Cc2ccncc2)C1` (configuration not stated) [(4-phenylphenyl)-[1-(4-pyridylmethyl)-3-piperidyl]methanone] came in with an EC50 of 7.52 µM.
The molecule `O=C(NCC1CCCN(C(=O)c2cccnc2)C1)c1ccc(-c2ccccc2)cc1` (configuration not stated) [4-phenyl-N-[(1-pyridin-3-ylcarbonylpiperidin-3-yl)methyl]benzamide] showed an EC50 of 0.657 µM.
Still for that read-out and setting: with `O=C(O)CC/C(=C\c1ccc(N2CCCC2)c([N+](=O)[O-])c1)c1nc2ccccc2s1` [(E)-4-(1,3-benzothiazol-2-yl)-5-(3-nitro-4-pyrrolidin-1-yl-phenyl)pent-4-enoic acid] the figure was 29.4 µM; with `Cc1oc(-c2ccccc2)nc1C[S+]([O-])CC(=O)N1CCc2ccccc2C1` (configuration not stated) [1-(3,4-dihydro-1H-isoquinolin-2-yl)-2-[(5-methyl-2-phenyl-1,3-oxazol-4-yl)methylsulfinyl]ethanone], 4.86 µM; with `COC(=O)[C@@H](NC(=O)O[C@@H]1C(=O)c2ccc(OC)cc2O[C@H]1c1cccc(C(F)(F)F)c1)C(C)C` [(2S)-2-[[(2S,3S)-4-keto-7-methoxy-2-[3-(trifluoromethyl)phenyl]chroman-3-yl]oxycarbonylamino]-3-methyl-butyric acid methyl ester], 4.12 µM.
Same read-out and setting: as for `O=C(CSc1nnc(-c2ccc(F)cc2)o1)N1CCN(C(=O)c2ccco2)CC1` [2-[5-(4-Fluoro-phenyl)-[1,3,4]oxadiazol-2-ylsulfanyl]-1-[4-(furan-2-carbonyl)-piperazin-1-yl]-ethanone], the figure is 17.7 µM.
Molecule `NC(=S)NN=C1C(=O)N(Cc2ccccc2)c2ccccc21` [1-[(Z)-[2-oxidanylidene-1-(phenylmethyl)indol-3-ylidene]amino]thiourea] had an EC50 of 0.618 µM.
The same measure, in the same setting: as for `O=C(O)/C=C/c1cn(Cc2ccccc2)nc1-c1ccccc1` [MLS000567315], the figure is 13700 µM; as for `COc1ccccc1N1CCN(C(=S)NC(=O)/C=C/c2ccccc2)CC1` [(E)-N-[4-(2-Methoxy-phenyl)-piperazine-1-carbothioyl]-3-phenyl-acrylamide], 109 µM; as for `CCN(CC)S(=O)(=O)c1ccc(NC(=O)CSc2ncnc3ccccc23)cc1` [MLS000393282], 5.08 µM.
On the same count and under the same terms, with `Sc1nnc(CNc2cccc(Cl)c2)o1` [5-[(3-chloroanilino)methyl]-3H-1,3,4-oxadiazole-2-thione] the figure was 1.49 µM.
Same read-out and setting: with `Cc1c(N=C2Nc3cccc4cccc2c34)c(=O)n(-c2ccccc2)n1C` [4-(2-benzo[cd]indolylamino)-1,5-dimethyl-2-phenyl-3-pyrazolone] the figure was 1.89 µM.
The molecule `N#Cc1nc(-c2ccco2)oc1N1CCN(Cc2ccccc2)CC1` [2-(2-furanyl)-5-[4-(phenylmethyl)-1-piperazinyl]-4-oxazolecarbonitrile] came in with an EC50 of 4.59 µM.
Molecule `Cc1cccc(-c2nc(C[S+]([O-])CC(=O)N3CCc4ccccc4C3)c(C)o2)c1` (configuration not stated) [1-(3,4-dihydro-1H-isoquinolin-2-yl)-2-[[5-methyl-2-(3-methylphenyl)-1,3-oxazol-4-yl]methylsulfinyl]ethanone] showed an EC50 of 5.03 µM.
`CC(C)NC(=S)NNC1=c2cc(C(C)C)ccc2=NC1=O` [SMR000242097] displayed an EC50 of 145 µM.

The same test, now with this note: inactive by the depositor's call.
In turn, `N#C/C(=C\c1ccc(-c2cccc([N+](=O)[O-])c2)o1)C(=O)Nc1nc(-c2cccs2)cs1` [MLS000402444] showed a half-maximal effective concentration (EC50) of 9.15 µM. That is a single-digit micromolar value.
For the molecule `COc1cc(C)c(C)cc1S(=O)(=O)N1CCN(Cc2ccccc2)CC1` [1-(2-methoxy-4,5-dimethyl-phenyl)sulfonyl-4-(phenylmethyl)piperazine], a half-maximal effect (EC50) was put at 33.3 µM. Compared with the last molecule, the EC50 is about 3.6-fold higher.
On the same count and under the same terms, with `CN1C(=CC(=O)C2CCC2)Sc2ccccc21` [(2Z)-1-cyclobutyl-2-(3-methyl-1,3-benzothiazol-2-ylidene)ethanone] the figure was 170 µM; with `O=C(Cn1cnc2c(nnn2Cc2ccc(F)cc2)c1=O)NCc1ccco1` [2-[3-(4-fluorobenzyl)-7-keto-triazolo[4,5-d]pyrimidin-6-yl]-N-(2-furfuryl)acetamide], 49 µM.

Broadly, the EC50 is the concentration needed to bring the measured effect to its halfway point. Low readings indicate an effect from little substance, high ones a need for much substance.
